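Briefly, cells in 96-well plates were exposed to five compound concentrations for 48 h, and endpoints were estimated by linear interpolation. TGI denotes the concentration required for complete inhibition of growth.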
Experiments:
Assay in all cases: NCI-60 cell line screen, 48 h
786-0 renal = tested on: 786-0 renal
A498 renal = tested on: A498 renal
A549 NSCLC = tested on: A549 NSCLC
ACHN renal = tested on: ACHN renal
BT-549 breast = tested on: BT-549 breast
CAKI-1 renal = tested on: CAKI-1 renal
CCRF-CEM leukemia = tested on: CCRF-CEM leukemia
COLO 205 colon = tested on: COLO 205 colon
DU-145 prostate = tested on: DU-145 prostate
EKVX NSCLC = tested on: EKVX NSCLC
HCC-2998 colon = tested on: HCC-2998 colon
HCT-116 colon = tested on: HCT-116 colon
HCT-15 colon = tested on: HCT-15 colon
HL-60(TB) leukemia = tested on: HL-60(TB) leukemia
HOP-62 NSCLC = tested on: HOP-62 NSCLC
HS 578T breast = tested on: HS 578T breast
HT29 colon = tested on: HT29 colon
IGROV1 ovarian = tested on: IGROV1 ovarian
K-562 leukemia = tested on: K-562 leukemia
KM12 colon = tested on: KM12 colon
LOX IMVI melanoma = tested on: LOX IMVI melanoma
M14 melanoma = tested on: M14 melanoma
MALME-3M melanoma = tested on: MALME-3M melanoma
MCF7 breast = tested on: MCF7 breast
MDA-MB-231 breast = tested on: MDA-MB-231 breast
MDA-MB-435 = tested on: MDA-MB-435
MDA-N = tested on: MDA-N
MOLT-4 leukemia = tested on: MOLT-4 leukemia
NCI-H226 lung = tested on: NCI-H226 lung
NCI-H23 lung = tested on: NCI-H23 lung
NCI-H460 lung = tested on: NCI-H460 lung
NCI-H522 lung = tested on: NCI-H522 lung
NCI/ADR-RES ovarian = tested on: NCI/ADR-RES ovarian
OVCAR-3 ovarian = tested on: OVCAR-3 ovarian
OVCAR-4 ovarian = tested on: OVCAR-4 ovarian
OVCAR-5 ovarian = tested on: OVCAR-5 ovarian
OVCAR-8 ovarian = tested on: OVCAR-8 ovarian
PC-3 prostate = tested on: PC-3 prostate
RPMI-8226 leukemia = tested on: RPMI-8226 leukemia
RXF 393 renal = tested on: RXF 393 renal
SF-268 CNS = tested on: SF-268 CNS
SF-295 CNS = tested on: SF-295 CNS
SF-539 CNS = tested on: SF-539 CNS
SK-MEL-2 melanoma = tested on: SK-MEL-2 melanoma
SK-MEL-28 melanoma = tested on: SK-MEL-28 melanoma
SK-OV-3 ovarian = tested on: SK-OV-3 ovarian
SN12C renal = tested on: SN12C renal
SNB-19 CNS = tested on: SNB-19 CNS
SNB-75 CNS = tested on: SNB-75 CNS
SW-620 colon = tested on: SW-620 colon
T-47D breast = tested on: T-47D breast
TK-10 renal = tested on: TK-10 renal
U251 CNS = tested on: U251 CNS
UACC-257 melanoma = tested on: UACC-257 melanoma
UACC-62 melanoma = tested on: UACC-62 melanoma
HOP-92 NSCLC = tested on: HOP-92 NSCLC
SK-MEL-5 melanoma = tested on: SK-MEL-5 melanoma
UO-31 renal = tested on: UO-31 renal

Measured: TGI

O=C(N/N=C(/COc1ccccc1Cl)N=Cc1cccnc1)c1ccncc1
> 100 µM: 786-0 renal | A498 renal | A549 NSCLC | ACHN renal | BT-549 breast | CAKI-1 renal | CCRF-CEM leukemia | COLO 205 colon | DU-145 prostate | EKVX NSCLC | HCC-2998 colon | HCT-116 colon | HCT-15 colon | HL-60(TB) leukemia | HOP-62 NSCLC | HS 578T breast | HT29 colon | IGROV1 ovarian | K-562 leukemia | KM12 colon | LOX IMVI melanoma | M14 melanoma | MALME-3M melanoma | MCF7 breast | MDA-MB-231 breast | MDA-MB-435 | MDA-N | MOLT-4 leukemia | NCI-H226 lung | NCI-H23 lung | NCI-H460 lung | NCI-H522 lung | NCI/ADR-RES ovarian | OVCAR-3 ovarian | OVCAR-4 ovarian | OVCAR-5 ovarian | OVCAR-8 ovarian | PC-3 prostate | RPMI-8226 leukemia | RXF 393 renal | SF-268 CNS | SF-295 CNS | SF-539 CNS | SK-MEL-2 melanoma | SK-MEL-28 melanoma | SK-OV-3 ovarian | SN12C renal | SNB-19 CNS | SNB-75 CNS | SW-620 colon | T-47D breast | TK-10 renal | U251 CNS | UACC-257 melanoma | UACC-62 melanoma

CCCCNc1nc2nc[nH]c2c(=O)[nH]1
> 100 µM: 786-0 renal | A498 renal | A549 NSCLC | ACHN renal | BT-549 breast | CAKI-1 renal | CCRF-CEM leukemia | COLO 205 colon | DU-145 prostate | EKVX NSCLC | HCC-2998 colon | HCT-116 colon | HCT-15 colon | HOP-62 NSCLC | HOP-92 NSCLC | HS 578T breast | HT29 colon | IGROV1 ovarian | K-562 leukemia | KM12 colon | LOX IMVI melanoma | M14 melanoma | MALME-3M melanoma | MCF7 breast | MDA-MB-231 breast | MDA-MB-435 | MDA-N | MOLT-4 leukemia | NCI-H226 lung | NCI-H23 lung | NCI-H460 lung | NCI-H522 lung | NCI/ADR-RES ovarian | OVCAR-3 ovarian | OVCAR-4 ovarian | OVCAR-5 ovarian | OVCAR-8 ovarian | PC-3 prostate | RPMI-8226 leukemia | RXF 393 renal | SF-268 CNS | SF-295 CNS | SF-539 CNS | SK-MEL-2 melanoma | SK-MEL-5 melanoma | SK-OV-3 ovarian | SN12C renal | SNB-19 CNS | SNB-75 CNS | SW-620 colon | T-47D breast | TK-10 renal | U251 CNS | UACC-257 melanoma | UACC-62 melanoma | UO-31 renal

CC(C)CCNc1ncnc2[nH]ncc12
> 100 µM: 786-0 renal | A498 renal | A549 NSCLC | ACHN renal | BT-549 breast | CAKI-1 renal | COLO 205 colon | DU-145 prostate | EKVX NSCLC | HCC-2998 colon | HCT-116 colon | HCT-15 colon | HL-60(TB) leukemia | HOP-62 NSCLC | HOP-92 NSCLC | HS 578T breast | HT29 colon | IGROV1 ovarian | K-562 leukemia | KM12 colon | LOX IMVI melanoma | M14 melanoma | MALME-3M melanoma | MCF7 breast | MDA-MB-231 breast | MDA-MB-435 | MDA-N | MOLT-4 leukemia | NCI-H226 lung | NCI-H23 lung | NCI-H460 lung | NCI-H522 lung | NCI/ADR-RES ovarian | OVCAR-3 ovarian | OVCAR-4 ovarian | OVCAR-5 ovarian | OVCAR-8 ovarian | PC-3 prostate | RPMI-8226 leukemia | RXF 393 renal | SF-268 CNS | SF-295 CNS | SK-MEL-2 melanoma | SK-MEL-28 melanoma | SK-MEL-5 melanoma | SK-OV-3 ovarian | SN12C renal | SNB-19 CNS | SNB-75 CNS | SW-620 colon | T-47D breast | TK-10 renal | U251 CNS | UACC-257 melanoma | UACC-62 melanoma | UO-31 renal
